Assay results as given in patent publication US11028075B2, “Therapeutic compounds and methods of use thereof” (GENENTECH, INC., priority 2018, dated 2021).
Where a name gives a salt, the structure may show the parent alone.

How the values were obtained:
hNav1.7 [1] = target: T1, hNav1.7 (Homo sapiens (Human), UniProt Q15858); experiment: Electrophysiological assay (EP), voltage clamp on Syncropatch 384PE, CHO cells stably expressing Nav1.7; assay type: cell-based; conditions: holding potential −50 mV, 7.5 min compound incubation, read-out: EP_SP hNav1.7 EVO IC50
In short: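 Whole-cell automated patch clamp was run on CHO cells stably expressing human Nav1.7 cDNA, with internal solution CsCl/EGTA pH 7.2, external solution 80 mM NaCl pH 7.4, and 0.1% Pluronic F-127. From a −50 mV holding potential: −10 mV for 10 ms, −150 mV for 20 ms, then −10 mV for 10 ms, where current was measured. Inhibition was taken after 7.5 min compound incubation, with TTX added for full block.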
Target sequence in this assay (Q15858 other isoform, or with tags, fused parts or gaps): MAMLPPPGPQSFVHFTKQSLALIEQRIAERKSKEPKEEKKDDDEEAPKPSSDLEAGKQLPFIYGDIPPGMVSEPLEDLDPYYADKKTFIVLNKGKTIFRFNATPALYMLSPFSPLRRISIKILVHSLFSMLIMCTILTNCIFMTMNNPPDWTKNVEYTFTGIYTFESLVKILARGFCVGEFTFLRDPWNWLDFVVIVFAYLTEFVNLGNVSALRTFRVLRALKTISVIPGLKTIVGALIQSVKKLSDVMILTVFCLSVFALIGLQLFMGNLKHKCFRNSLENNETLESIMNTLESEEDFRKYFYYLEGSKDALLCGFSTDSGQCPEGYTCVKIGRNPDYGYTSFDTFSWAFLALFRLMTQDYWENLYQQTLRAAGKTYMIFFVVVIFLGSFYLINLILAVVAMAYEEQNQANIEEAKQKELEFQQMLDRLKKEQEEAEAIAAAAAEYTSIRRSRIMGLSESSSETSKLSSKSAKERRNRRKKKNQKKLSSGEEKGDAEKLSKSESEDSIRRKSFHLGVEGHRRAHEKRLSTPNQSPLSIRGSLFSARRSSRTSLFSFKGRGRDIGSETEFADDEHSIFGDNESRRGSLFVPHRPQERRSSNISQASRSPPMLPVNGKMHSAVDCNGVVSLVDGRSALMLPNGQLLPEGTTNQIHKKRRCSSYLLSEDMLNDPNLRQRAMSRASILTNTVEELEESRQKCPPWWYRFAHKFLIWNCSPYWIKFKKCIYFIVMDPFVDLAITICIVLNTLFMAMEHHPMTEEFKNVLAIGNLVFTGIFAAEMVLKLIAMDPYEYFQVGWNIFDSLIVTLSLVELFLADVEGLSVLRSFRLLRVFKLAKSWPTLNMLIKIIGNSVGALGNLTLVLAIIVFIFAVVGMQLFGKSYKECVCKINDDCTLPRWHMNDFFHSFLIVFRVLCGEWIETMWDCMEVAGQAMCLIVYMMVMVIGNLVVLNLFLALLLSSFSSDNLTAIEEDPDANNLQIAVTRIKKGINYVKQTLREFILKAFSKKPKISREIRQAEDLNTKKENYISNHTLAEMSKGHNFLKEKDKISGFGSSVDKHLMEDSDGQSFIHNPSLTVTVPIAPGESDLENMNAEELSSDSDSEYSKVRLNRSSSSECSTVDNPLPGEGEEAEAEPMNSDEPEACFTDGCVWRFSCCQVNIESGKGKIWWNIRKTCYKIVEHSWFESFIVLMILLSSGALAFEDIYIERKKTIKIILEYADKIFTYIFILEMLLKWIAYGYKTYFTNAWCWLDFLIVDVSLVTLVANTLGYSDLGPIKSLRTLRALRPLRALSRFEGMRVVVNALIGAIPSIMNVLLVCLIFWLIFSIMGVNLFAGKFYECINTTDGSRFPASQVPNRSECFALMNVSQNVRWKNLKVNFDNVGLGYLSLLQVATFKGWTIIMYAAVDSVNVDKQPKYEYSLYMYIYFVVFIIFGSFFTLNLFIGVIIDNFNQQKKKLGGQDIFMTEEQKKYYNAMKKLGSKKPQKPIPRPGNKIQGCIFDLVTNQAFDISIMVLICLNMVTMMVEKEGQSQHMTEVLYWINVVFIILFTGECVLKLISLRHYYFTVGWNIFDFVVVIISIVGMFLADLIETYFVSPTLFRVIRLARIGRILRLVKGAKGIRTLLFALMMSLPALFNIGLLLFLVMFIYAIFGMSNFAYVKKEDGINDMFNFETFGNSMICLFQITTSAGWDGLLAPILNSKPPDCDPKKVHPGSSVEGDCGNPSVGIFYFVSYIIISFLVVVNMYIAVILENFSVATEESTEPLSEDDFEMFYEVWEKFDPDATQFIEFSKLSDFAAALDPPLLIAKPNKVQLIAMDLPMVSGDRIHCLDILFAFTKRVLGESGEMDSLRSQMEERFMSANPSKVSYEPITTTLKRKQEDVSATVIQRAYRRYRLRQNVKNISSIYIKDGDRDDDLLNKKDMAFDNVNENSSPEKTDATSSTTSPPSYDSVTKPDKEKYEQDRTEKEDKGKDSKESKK

hNav1.7 [2] = target: T1, hNav1.7; experiment: Tritiated compound binding to membranes from cells heterologously expressing hNav1.7 and the β1 subunit (Nav1.7 LBA); conditions: competitive binding vs [3H]compound, membranes with hNav1.7 and β1 subunit; read-out: Nav1.7 LBA EVO IC50
In short: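 Membranes from cells expressing hNav1.7 with β1 were incubated at room temperature with a tritiated competitive Nav1.7 inhibitor plus test compound in 100 mM NaCl, 20 mM Tris pH 7.4, 0.01% BSA; nonspecific binding was set with 1 μM unlabeled compound. Incubation was 18 h with […] radioligand, or 3 h with […]. Bound ligand was filtered and counted, and IC50 came from a 4-parameter fit.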
Target sequence in this assay (Q15858 whole entry, looked up): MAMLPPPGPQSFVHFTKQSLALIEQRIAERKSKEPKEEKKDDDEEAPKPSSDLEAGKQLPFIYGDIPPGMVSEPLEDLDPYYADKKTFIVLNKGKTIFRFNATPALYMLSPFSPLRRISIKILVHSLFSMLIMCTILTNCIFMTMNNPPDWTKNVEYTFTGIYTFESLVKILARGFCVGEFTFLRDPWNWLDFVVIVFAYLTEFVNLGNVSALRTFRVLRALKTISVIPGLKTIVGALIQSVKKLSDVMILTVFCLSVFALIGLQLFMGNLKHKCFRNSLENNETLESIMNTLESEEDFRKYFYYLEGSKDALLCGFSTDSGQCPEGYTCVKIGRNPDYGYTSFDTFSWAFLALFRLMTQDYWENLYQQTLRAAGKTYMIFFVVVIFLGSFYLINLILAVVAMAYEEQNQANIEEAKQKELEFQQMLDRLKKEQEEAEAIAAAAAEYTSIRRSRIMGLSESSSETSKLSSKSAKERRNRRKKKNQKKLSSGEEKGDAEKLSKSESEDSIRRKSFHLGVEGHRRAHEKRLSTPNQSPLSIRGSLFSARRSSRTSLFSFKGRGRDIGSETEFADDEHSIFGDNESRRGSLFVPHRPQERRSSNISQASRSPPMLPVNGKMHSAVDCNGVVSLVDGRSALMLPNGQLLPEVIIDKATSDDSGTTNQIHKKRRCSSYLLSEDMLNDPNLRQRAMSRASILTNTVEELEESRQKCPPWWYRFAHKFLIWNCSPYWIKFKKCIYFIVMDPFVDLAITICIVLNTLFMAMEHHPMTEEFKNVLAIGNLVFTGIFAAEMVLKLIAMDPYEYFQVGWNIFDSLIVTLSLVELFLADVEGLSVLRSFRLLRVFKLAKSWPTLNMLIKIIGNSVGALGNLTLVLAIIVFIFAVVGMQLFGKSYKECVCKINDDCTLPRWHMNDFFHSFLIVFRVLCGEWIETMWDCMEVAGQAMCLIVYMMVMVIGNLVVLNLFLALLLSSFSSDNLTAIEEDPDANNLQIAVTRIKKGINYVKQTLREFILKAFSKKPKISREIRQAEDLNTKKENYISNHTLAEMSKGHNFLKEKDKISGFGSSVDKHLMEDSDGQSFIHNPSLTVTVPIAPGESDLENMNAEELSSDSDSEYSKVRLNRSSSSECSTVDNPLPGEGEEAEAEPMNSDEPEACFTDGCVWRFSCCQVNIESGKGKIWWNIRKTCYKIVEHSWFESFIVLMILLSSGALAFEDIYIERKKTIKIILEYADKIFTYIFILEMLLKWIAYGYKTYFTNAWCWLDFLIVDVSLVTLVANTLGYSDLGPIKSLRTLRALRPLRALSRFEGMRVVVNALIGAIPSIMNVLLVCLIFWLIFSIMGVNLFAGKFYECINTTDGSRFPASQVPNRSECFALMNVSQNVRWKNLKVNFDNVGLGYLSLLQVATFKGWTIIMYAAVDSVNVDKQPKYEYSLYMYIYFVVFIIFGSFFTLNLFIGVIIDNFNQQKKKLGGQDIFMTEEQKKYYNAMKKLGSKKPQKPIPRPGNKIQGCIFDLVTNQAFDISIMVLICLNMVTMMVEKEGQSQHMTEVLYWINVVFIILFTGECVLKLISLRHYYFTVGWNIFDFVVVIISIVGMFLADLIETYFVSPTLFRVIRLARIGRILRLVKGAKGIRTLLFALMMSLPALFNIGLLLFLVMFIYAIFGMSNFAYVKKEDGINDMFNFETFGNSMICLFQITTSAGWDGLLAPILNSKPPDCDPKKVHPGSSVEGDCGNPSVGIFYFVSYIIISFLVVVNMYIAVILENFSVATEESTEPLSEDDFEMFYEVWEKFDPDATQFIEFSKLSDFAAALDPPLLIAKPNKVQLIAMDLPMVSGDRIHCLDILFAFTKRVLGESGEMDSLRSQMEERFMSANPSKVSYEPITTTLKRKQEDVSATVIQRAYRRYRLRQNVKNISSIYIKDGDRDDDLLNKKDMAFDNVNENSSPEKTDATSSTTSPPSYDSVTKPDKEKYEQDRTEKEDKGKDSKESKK
Target sequence in this assay (Q07699 whole entry partner, looked up): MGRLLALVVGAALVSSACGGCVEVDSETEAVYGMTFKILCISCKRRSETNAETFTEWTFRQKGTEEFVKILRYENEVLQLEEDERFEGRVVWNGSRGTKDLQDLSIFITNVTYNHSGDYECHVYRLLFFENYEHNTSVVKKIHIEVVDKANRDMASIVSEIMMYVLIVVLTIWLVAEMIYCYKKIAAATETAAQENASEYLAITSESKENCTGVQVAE

SMILES | IC50 (hNav1.7 [1]) | IC50 (hNav1.7 [2])
CN(C)[C@H]1C[C@@H](c2cccc(OC(F)(F)F)c2)CC[C@@H]1Oc1cc(F)c(S(=O)(=O)Nc2ccncn2)cc1F [Example 59, 4-(((1S,2S,4S)-2-(dimethylamino)-4-(3-(trifluoromethoxy)phenyl)cyclohexyl)oxy)-2,5-difluoro-N-(pyrimidin-4-yl)benzenesulfonamide formate] | 1.62 nM | 32.6 nM
O=S(=O)(Nc1ccncn1)c1cc(Cl)c(O[C@H]2CC[C@H](c3cccc(C(F)(F)F)c3)C[C@@H]2N2CCCC2)cc1F [Example 60, 5-chloro-2-fluoro-N-(pyrimidin-4-yl)-4-(((1S,2S,4S)-2-(pyrrolidin-1-yl)-4-(3-(trifluoromethyl)-phenyl)cyclohexyl)oxy)benzenesulfonamide formate] | 0.745 nM | 1.6 nM
O=S(=O)(Nc1ccncn1)c1cc(F)c(N[C@H]2CC[C@H](c3cccc(OC(F)(F)F)c3)C[C@@H]2N2CCCC2)cc1F [Example 61, 2,5-difluoro-N-(pyrimidin-4-yl)-4-(((1S,2S,4S)-2-(pyrrolidin-1-yl)-4-(3-(trifluoromethoxy)-phenyl)cyclohexyl)amino)benzenesulfonamide formate] | 0.322 nM | 1.54 nM
O=S(=O)(Nc1ccncn1)c1cc(F)c(N[C@H]2CC[C@H](c3cccc(C(F)(F)F)c3)C[C@@H]2N2CCCCC2)cc1F [Example 62, 2,5-difluoro-4-(((1S,2S,4S)-2-(piperidin-1-yl)-4-(3-(trifluoromethyl)phenyl)cyclohexyl)-amino)-N-(pyrimidin-4-yl)benzenesulfonamide formate] | 0.628 nM | 0.816 nM
CN[C@H]1C[C@@H](c2cccc(C(F)(F)F)c2)CC[C@@H]1Oc1cc(F)c(S(=O)(=O)Nc2ccncn2)cc1Cl [Example 63, 5-chloro-2-fluoro-4-(((1S,2S,4S)-2-(methylamino)-4-(3-(trifluoromethyl)phenyl)-cyclohexyl)oxy)-N-(pyrimidin-4-yl)benzenesulfonamide] | 0.709 nM | 11.2 nM
O=S(=O)(Nc1ccncn1)c1cc(Cl)c(O[C@H]2CC[C@H](c3cccc(OC(F)(F)F)c3)C[C@@H]2N2CCCC2)cc1F [Example 64, 5-chloro-2-fluoro-N-(pyrimidin-4-yl)-4-(((1S,2S,4S)-2-(pyrrolidin-1-yl)-4-(3-(trifluoromethoxy)-phenyl)cyclohexyl)oxy)benzenesulfonamide formate] | 0.554 nM | 1.37 nM
CN(C)[C@H]1C[C@@H](c2cc(Cl)ccc2Cl)CC[C@@H]1Oc1cc(F)c(S(=O)(=O)Nc2ccncn2)cc1Cl [Example 65, 5-chloro-4-(((1S,2S,4S)-4-(2,5-dichlorophenyl)-2-(dimethylamino)cyclohexyl)oxy)-2-fluoro-N-(pyrimidin-4-yl)benzenesulfonamide formate] | 1.03 nM | 5.41 nM
CN(CCO)[C@H]1C[C@@H](c2cccc(C(F)(F)F)c2)CC[C@@H]1Oc1cc(F)c(S(=O)(=O)Nc2ccncn2)cc1Cl [Example 66, 5-chloro-2-fluoro-4-(((1S,2S,4S)-2-((2-hydroxyethyl)(methyl)amino)-4-(3-(trifluoromethyl)-phenyl)cyclohexyl)oxy)-N-(pyrimidin-4-yl)benzenesulfonamide formate] | 0.732 nM | 2.59 nM
CN(C)[C@H]1C[C@@H](c2ccc(Cl)c(Cl)c2)CC[C@@H]1Oc1cc(F)c(S(=O)(=O)Nc2ccncn2)cc1Cl [Example 67, 5-chloro-4-(((1S,2S,4S)-4-(3,4-dichlorophenyl)-2-(dimethylamino)cyclohexyl)oxy)-2-fluoro-N-(pyrimidin-4-yl)benzenesulfonamide formate] | 0.325 nM | 3.83 nM
CCN[C@H]1C[C@@H](c2cccc(C(F)(F)F)c2)CC[C@@H]1Oc1cc(F)c(S(=O)(=O)Nc2ccncn2)cc1Cl [Example 68, 5-chloro-4-(((1S,2S,4S)-2-(ethylamino)-4-(3-(trifluoromethyl)phenyl)cyclohexyl)oxy)-2-fluoro-N-(pyrimidin-4-yl)benzenesulfonamide formate] | 0.737 nM | 1.69 nM
CNCCN(C)[C@H]1C[C@@H](c2cccc(C(F)(F)F)c2)CC[C@@H]1Oc1cc(F)c(S(=O)(=O)Nc2ccncn2)cc1Cl [Example 69, 5-chloro-2-fluoro-4-(((1S,2S,4S)-2-(methyl(2-(methylamino)ethyl)amino)-4-(3-(trifluoromethyl)phenyl)cyclohexyl)oxy)-N-(pyrimidin-4-yl)benzenesulfonamide formate] | 0.173 nM | 0.474 nM
O=S(=O)(Nc1ccncn1)c1cc(F)c(N[C@H]2CC[C@H](c3cccc(C(F)(F)F)c3F)C[C@@H]2N2CCCC2)cc1F [Example 70, 2,5-difluoro-4-(((1S,2S,4S)-4-(2-fluoro-3-(trifluoromethyl)phenyl)-2-(pyrrolidin-1-yl)cyclohexyl)-amino)-N-(pyrimidin-4-yl)benzenesulfonamide hydrochloride] | 0.966 nM | 7.22 nM
CN(C)[C@H]1CN(c2cc(C(F)(F)F)ccn2)CC[C@@H]1Nc1cc(F)c(S(=O)(=O)Nc2ccncn2)cc1Cl [Example 71, 5-Chloro-4-(((3S,4S)-3-(dimethylamino)-1-(4-(trifluoromethyl)pyridin-2-yl)piperidin-4-yl)amino)-2-fluoro-N-(pyrimidin-4-yl)benzenesulfonamide formate] | 7.04 nM | 169 nM
CN(C)[C@H]1CN(c2cc(C(F)(F)F)ccn2)CC[C@@H]1Nc1ccc(S(=O)(=O)Nc2ccncn2)c(F)c1 [Example 72, 4-(((3S,4S)-3-(Dimethylamino)-1-(4-(trifluoromethyl)pyridin-2-yl)piperidin-4-yl)amino)-2-fluoro-N-(pyrimidin-4-yl)benzenesulfonamide formate] | 23.1 nM | 274 nM
CN(C)[C@H]1CN(S(=O)(=O)c2cccc(C(F)(F)F)c2)CC[C@@H]1Nc1cc(F)c(S(=O)(=O)Nc2ccncn2)cc1Cl [Example 73, 5-Chloro-4-(((3S,4S)-3-(dimethylamino)-1-((3-(trifluoromethyl)phenyl)sulfonyl)piperidin-4-yl)amino)-2-fluoro-N-(pyrimidin-4-yl)benzenesulfonamide formate] | 3.34 nM | 82.3 nM
CN(C)[C@H]1C[C@@H](c2cc(C(F)(F)F)ccc2F)CC[C@@H]1Oc1cc(F)c(S(=O)(=O)Nc2ccncn2)cc1Cl [Example 74, 5-chloro-4-(((1S,2S,4S)-2-(dimethylamino)-4-(2-fluoro-5-(trifluoromethyl)phenyl)cyclohexyl)oxy)-2-fluoro-N-(pyrimidin-4-yl)benzenesulfonamide] | 1.85 nM | 4.01 nM
CN(C)[C@H]1C[C@@H](c2cccc(Cl)c2Cl)CC[C@@H]1Oc1cc(F)c(S(=O)(=O)Nc2ccncn2)cc1Cl [Example 75, 5-chloro-4-(((1S,2S,4S)-4-(2,3-dichlorophenyl)-2-(dimethylamino)cyclohexyl)oxy)-2-fluoro-N-(pyrimidin-4-yl)benzenesulfonamide] | 2.62 nM | 50.6 nM
CN(C)[C@H]1C[C@@H](c2ccnc(C(F)(F)F)c2)CC[C@@H]1Oc1cc(F)c(S(=O)(=O)Nc2ccncn2)cc1Cl [Example 76, 5-chloro-4-(((1S,2S,4S)-2-(dimethylamino)-4-(2-(trifluoromethyl)pyridin-4-yl)cyclohexyl)oxy)-2-fluoro-N-(pyrimidin-4-yl)benzenesulfonamide formate] | 8.61 nM | 78.8 nM
CN(C)[C@H]1C[C@@H](c2cccc(C(F)(F)F)c2)CC[C@@H]1Oc1ccc(S(=O)(=O)Nc2ccncn2)cc1F [Example 79, 4-(((1S,2S,4S)-2-(Dimethylamino)-4-(3-(trifluoromethyl)phenyl)cyclohexyl)oxy)-3-fluoro-N-(pyrimidin-4-yl)benzenesulfonamide] | 18 nM | 223 nM
CN1CC(N(C)[C@H]2C[C@@H](c3cccc(C(F)(F)F)c3)CC[C@@H]2Oc2cc(F)c(S(=O)(=O)Nc3ccncn3)cc2Cl)C1 [Example 81, 5-chloro-2-fluoro-4-(((1S,2S,4S)-2-(methyl(1-methylazetidin-3-yl)amino)-4-(3-(trifluoromethyl)phenyl)cyclohexyl)oxy)-N-(pyrimidin-4-yl)benzenesulfonamide formate] | 0.334 nM | 0.661 nM
CN(C)[C@H]1C[C@@H](c2cc(Cl)cc(Cl)c2)CC[C@@H]1Oc1cc(F)c(S(=O)(=O)Nc2ccncn2)cc1Cl [Example 82, 5-chloro-4-(((1S,2S,4S)-4-(3,5-dichlorophenyl)-2-(dimethylamino)cyclohexyl)oxy)-2-fluoro-N-(pyrimidin-4-yl)benzenesulfonamide formate] | 0.355 nM | 1.57 nM
CN(C)[C@H]1C[C@@H](c2cccc(C3CCOCC3)c2)CC[C@@H]1Oc1cc(F)c(S(=O)(=O)Nc2ccncn2)cc1Cl [Example 83] | 6.36 nM | 38.6 nM
O=S(=O)(Nc1ccncn1)c1cc(F)c(N[C@H]2CC[C@H](c3ccc(F)c(C(F)(F)F)c3)C[C@@H]2N2CCCC2)cc1F [Example 84, 2,5-difluoro-4-(((1S,2S,4S)-4-(4-fluoro-3-(trifluoromethyl)phenyl)-2-(pyrrolidin-1-yl)cyclohexyl)-amino)-N-(pyrimidin-4-yl)benzenesulfonamide] | 0.52 nM | 0.877 nM
